Measured values as given in PubChem BioAssay AID330 (DTP/NCI, 2004).
Where “and” joins values, the source holds several entries; their conditions need not be identical. Equal values may be shown once. Toxic doses and inconclusive results are not listed.

Test system: P388 leukemia ip, CD2F1 mice, survival T/C
Test: NCI In Vivo Anticancer Drug Screen. Data for tumor model P388 Leukemia (intraperitoneal) in CD2F1 (CDF1) mice
Conditions: endpoint: median survival time, higher = longer survival
Outline: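 Mice carrying the transplanted tumor received test compound or vehicle. Survival was recorded in each group, and the value is the treated-group measurement divided by that of the vehicle-treated control group.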

[1] = dose: 50.0 mg/kg/injection, schedule: Q01DX009 (ip), vehicle: Klucel (hydroxypropylcellulose) (HPC)
[2] = dose: 100.0 mg/kg/injection, schedule: Q01DX009 (ip), vehicle: Klucel (hydroxypropylcellulose) (HPC)
[3] = dose: 200.0 mg/kg/injection, schedule: Q01DX009 (ip), vehicle: Klucel (hydroxypropylcellulose) (HPC)
[4] = dose: 50.0 mg/kg/injection, schedule: Q01DX005 (ip), vehicle: saline with Tween-80
[5] = dose: 100.0 mg/kg/injection, schedule: Q01DX005 (ip), vehicle: saline with Tween-80
[6] = dose: 200.0 mg/kg/injection, schedule: Q01DX005 (ip), vehicle: saline with Tween-80
[7] = dose: 100.0 mg/kg/injection, schedule: Q04DX003 (ip), vehicle: saline with Tween-80
[8] = dose: 200.0 mg/kg/injection, schedule: Q04DX003 (ip), vehicle: saline with Tween-80
[9] = dose: 400.0 mg/kg/injection, schedule: Q04DX003 (ip), vehicle: saline with Tween-80
[10] = dose: 60.0 mg/kg/injection, schedule: Q01DX005 (ip), vehicle: saline with Tween-80
[11] = dose: 120.0 mg/kg/injection, schedule: Q01DX005 (ip), vehicle: saline with Tween-80
[12] = dose: 240.0 mg/kg/injection, schedule: Q01DX005 (ip), vehicle: saline with Tween-80

Structure (SMILES): CC(=O)O.CC(C)=CCC(OC(=O)C=C(C)C)c1cc(O)c2c(O)ccc(O)c2c1O.[Cr] (centres undefined)
- T/C (dose: 100.0 mg/kg/injection, schedule: Q01DX001 (ip), vehicle: saline with Tween-80): 93 % of control
- T/C (dose: 200.0 mg/kg/injection, schedule: Q01DX001 (ip), vehicle: saline with Tween-80): 93 % of control
- T/C (dose: 400.0 mg/kg/injection, schedule: Q01DX001 (ip), vehicle: saline with Tween-80): 94 % of control

Structure (SMILES): CCSSC(=Nc1ccccc1)OCC(C)C
- T/C (dose: 50.0 mg/kg/injection, schedule: Q01DX009 (ip), vehicle: saline + Tween-80 + alcohol): 107 % of control
- T/C (dose: 100.0 mg/kg/injection, schedule: Q01DX009 (ip), vehicle: saline + Tween-80 + alcohol): 106 % of control
- T/C (dose: 200.0 mg/kg/injection, schedule: Q01DX009 (ip), vehicle: saline + Tween-80 + alcohol): 123 % of control

Structure (SMILES): Oc1c2ccccc2cc2cnc3ccccc3c12
- T/C (dose: 60.0 mg/kg/injection, schedule: Q01DX005 (ip), vehicle: Klucel (hydroxypropylcellulose) (HPC)): 102 % of control
- T/C (dose: 120.0 mg/kg/injection, schedule: Q01DX005 (ip), vehicle: Klucel (hydroxypropylcellulose) (HPC)): 109 % of control
- T/C (dose: 240.0 mg/kg/injection, schedule: Q01DX005 (ip), vehicle: Klucel (hydroxypropylcellulose) (HPC)): 111 % of control

Structure (SMILES): CC(C)(C)C(=O)OC/C=C\COC(=O)c1ccccc1
- T/C (dose: 25.0 mg/kg/injection, schedule: Q01DX009 (ip), vehicle: Klucel (hydroxypropylcellulose) (HPC)): 101 % of control
- T/C [1]: 104 % of control and 95 % of control and 96 % of control
- T/C [2]: 103 % of control and 104 % of control and 122 % of control
- T/C [3]: 111 % of control

Structure (SMILES): COc1ccccc1/C=N/NC(=O)Cc1ccccc1
- T/C (dose: 50.0 mg/kg/injection, schedule: Q01DX009 (ip), vehicle: saline with Tween-80): 101 % of control
- T/C (dose: 100.0 mg/kg/injection, schedule: Q01DX009 (ip), vehicle: saline with Tween-80): 91 % of control
- T/C (dose: 200.0 mg/kg/injection, schedule: Q01DX009 (ip), vehicle: saline with Tween-80): 93 % of control

Structure (SMILES): COc1cc(CC2C(=O)OCC2C2(c3ccc4c(c3)OCO4)SCCCS2)cc(OC)c1OC (centres undefined)
- T/C [1]: 105 % of control
- T/C [2]: 91 % of control
- T/C [3]: 93 % of control

Structure (SMILES): CC(O)Cn1nnc2ccccc2c1=O (centres undefined)
- T/C [4]: 107 % of control
- T/C [5]: 105 % of control
- T/C [6]: 112 % of control

Structure (SMILES): CN(C)C(=O)c1cccc2ccc[n+](C)c12
- T/C (dose: 78.0 micrograms/kg/injection, schedule: Q04DX002 (ip), vehicle: saline): 98 % of control
- T/C (dose: 156.0 micrograms/kg/injection, schedule: Q04DX002 (ip), vehicle: saline): 99 % of control
- T/C (dose: 312.0 micrograms/kg/injection, schedule: Q04DX002 (ip), vehicle: saline): 98 % of control

Structure (SMILES): CCCCC/C(C=O)=C\c1ccccc1
- T/C [7]: 118 % of control
- T/C [8]: 100 % of control
- T/C [9]: 109 % of control

Structure (SMILES): CCNSc1ccccc1
- T/C [1]: 106 % of control

Structure (SMILES): CC12CC3(Nc4ccccc4C3(C)O)OC1(C)c1ccccc1N2 (centres undefined)
- T/C [4]: 95 % of control
- T/C [5]: 92 % of control
- T/C [6]: 92 % of control

Structure (SMILES): O/N=C/C(Cl)(Cl)Cl
- T/C (dose: 3.12 mg/kg/injection, schedule: Q01DX009 (ip), vehicle: saline): 105 % of control
- T/C (dose: 6.25 mg/kg/injection, schedule: Q01DX009 (ip), vehicle: saline): 109 % of control
- T/C (dose: 12.5 mg/kg/injection, schedule: Q01DX009 (ip), vehicle: saline): 107 % of control and 97 % of control
- T/C (dose: 25.0 mg/kg/injection, schedule: Q01DX009 (ip), vehicle: saline): 100 % of control and 93 % of control

Structure (SMILES): CN1CCN(c2ccccc2N)CC1
- T/C (dose: 5.0 mg/kg/injection, schedule: Q01DX009 (ip), vehicle: saline with Tween-80): 104 % of control
- T/C (dose: 10.0 mg/kg/injection, schedule: Q01DX009 (ip), vehicle: saline with Tween-80): 100 % of control
- T/C (dose: 20.0 mg/kg/injection, schedule: Q01DX009 (ip), vehicle: saline with Tween-80): 95 % of control

Structure (SMILES): O=C(N1CCC2(CC1)SSC1(CCN(C(=O)C(F)(F)F)CC1)S2)C(F)(F)F
- T/C [7]: 87 % of control
- T/C [8]: 91 % of control

Structure (SMILES): C/C(=N\Nc1cccc2ccccc12)c1ccccn1
- T/C [4]: 111 % of control
- T/C [5]: 103 % of control
- T/C [6]: 98 % of control

Structure (SMILES): CN(C)c1ccc2[nH]c3ccccc3c2c1
- T/C [10]: 107 % of control
- T/C [11]: 108 % of control
- T/C [12]: 121 % of control

Structure (SMILES): OCC(O)CO
- T/C (dose: 0.5 % in 0.5 ml injection vol, schedule: Q01DX009 (ip), vehicle: water): 100 % of control
- T/C (dose: 1.0 % in 0.5 ml injection vol, schedule: Q01DX009 (ip), vehicle: water): 93 % of control
- T/C (dose: 2.0 % in 0.5 ml injection vol, schedule: Q01DX009 (ip), vehicle: water): 99 % of control and 105 % of control
- T/C (dose: 4.0 % in 0.5 ml injection vol, schedule: Q01DX009 (ip), vehicle: water): 105 % of control and 111 % of control
- T/C (dose: 8.0 % in 0.5 ml injection vol, schedule: Q01DX009 (ip), vehicle: water): 104 % of control and 94 % of control
- T/C (dose: 16.0 % in 0.5 ml injection vol, schedule: Q01DX009 (ip), vehicle: water): 101 % of control and 102 % of control

Structure (SMILES): O=C(/C=C\c1ccncc1)c1ccc([N+](=O)[O-])cc1
- T/C (dose: 25.0 mg/kg/injection, schedule: Q01DX009 (ip), vehicle: other): 103 % of control
- T/C (dose: 50.0 mg/kg/injection, schedule: Q01DX009 (ip), vehicle: other): 101 % of control
- T/C (dose: 100.0 mg/kg/injection, schedule: Q01DX009 (ip), vehicle: other): 96 % of control
- T/C (dose: 200.0 mg/kg/injection, schedule: Q01DX009 (ip), vehicle: other): 93 % of control
- T/C (dose: 400.0 mg/kg/injection, schedule: Q01DX009 (ip), vehicle: other): 92 % of control

Structure (SMILES): C[Si](C)(CC[Si](C)(C)OS(C)(=O)=O)OS(C)(=O)=O
- T/C (dose: 50.0 mg/kg/injection, schedule: Q01DX005 (ip), vehicle: Klucel (hydroxypropylcellulose) (HPC)): 101 % of control
- T/C (dose: 100.0 mg/kg/injection, schedule: Q01DX005 (ip), vehicle: Klucel (hydroxypropylcellulose) (HPC)): 99 % of control
- T/C (dose: 200.0 mg/kg/injection, schedule: Q01DX005 (ip), vehicle: Klucel (hydroxypropylcellulose) (HPC)): 89 % of control

Structure (SMILES): CNC(=O)OCc1c(-c2ccccc2)nc2n1CCS2
- T/C (dose: 12.5 mg/kg/injection, schedule: Q01DX001 (ip), vehicle: Klucel (hydroxypropylcellulose) (HPC)): 108 % of control
- T/C (dose: 25.0 mg/kg/injection, schedule: Q01DX001 (ip), vehicle: Klucel (hydroxypropylcellulose) (HPC)): 107 % of control
- T/C (dose: 50.0 mg/kg/injection, schedule: Q01DX001 (ip), vehicle: Klucel (hydroxypropylcellulose) (HPC)): 113 % of control

Structure (SMILES): C[C@@]12CCCC[C@@H]1N(CCN1CCCCC1)c1ccccc12
- T/C [10]: 95 % of control
- T/C [11]: 105 % of control
- T/C [12]: 98 % of control

Structure (SMILES): CCOC(=O)C(=O)C(C#N)c1ccccc1CC#N (centres undefined)
- T/C [4]: 109 % of control
- T/C [5]: 97 % of control

Structure (SMILES): COc1c2c(c(O)c3c4c(c(C)cc13)C1OC3(C(OC)OC5CC(C)(O)C(OC6CC(C)(O)C(O)C(C)O6)C(C)O5)OC1C(OC)(O4)C31CO1)C(=O)C(O)CC2OC1CC(C)(O)C(OC(C)=O)C(C)O1 (centres undefined)
- T/C (dose: 0.06 mg/kg/injection, schedule: Q01DX005 (ip), vehicle: saline): 158 % of control
- T/C (dose: 0.13 mg/kg/injection, schedule: Q01DX005 (ip), vehicle: saline): 155 % of control and 166 % of control

Structure (SMILES): CCc1nnc2cccc(Cl)n12
- T/C (dose: 100.0 mg/kg/injection, schedule: Q01DX001 (ip), vehicle: Klucel (hydroxypropylcellulose) (HPC)): 100 % of control
- T/C (dose: 200.0 mg/kg/injection, schedule: Q01DX001 (ip), vehicle: Klucel (hydroxypropylcellulose) (HPC)): 109 % of control
- T/C (dose: 400.0 mg/kg/injection, schedule: Q01DX001 (ip), vehicle: Klucel (hydroxypropylcellulose) (HPC)): 100 % of control

Structure (SMILES): O=C(c1ccccc1)C(O)n1ccnc1 (centres undefined)
- T/C (dose: 50.0 mg/kg/injection, schedule: Q01DX009 (ip), vehicle: distilled water + alcohol): 102 % of control
- T/C (dose: 100.0 mg/kg/injection, schedule: Q01DX009 (ip), vehicle: distilled water + alcohol): 104 % of control
- T/C (dose: 200.0 mg/kg/injection, schedule: Q01DX009 (ip), vehicle: distilled water + alcohol): 107 % of control

Structure (SMILES): CC(=O)C(N=Nc1ccc(S(=O)(=O)N=C(N)N)cc1)C(C)=O
- T/C [7]: 90 % of control
- T/C [8]: 88 % of control
- T/C [9]: 87 % of control

Structure (SMILES): Cl/C(=C\c1ccccc1)c1nc2ccccc2nc1Cl
- T/C [1]: 96 % of control
- T/C [2]: 89 % of control
- T/C [3]: 92 % of control

Structure (SMILES): CC1=NN(C(=O)CC(=O)Nc2ccc(C(=O)O)cc2)C(=O)C1N=Nc1ccccc1C(=O)O (centres undefined)
- T/C [4]: 110 % of control
- T/C [5]: 111 % of control
- T/C [6]: 110 % of control

Structure (SMILES): CCN(CC)C(=O)c1c(OC)cc(C)cc1C(O)c1cc(OC)cc(OC)c1 (centres undefined)
- T/C [4]: 99 % of control
- T/C [5]: 99 % of control
- T/C [6]: 96 % of control
